For 1 cell line, relative viability results are on record in the supplement of paper PMC10307832.

Holding throughout (assay): relative viability (nuclei count vs DMSO), 5 days (fraction); higher = more cells survive
Compound in experiment [1]: CC(C)C[C@@H](C(=O)N[C@H](C(=O)OC1CCCC1)c1ccccc1)[C@H](O)C(=O)NO [Tosedostat] + CC(C)C[C@H](NC(=O)[C@H](Cc1ccccc1)NC(=O)c1cnccn1)B(O)O [Bortezomib] (partner 0.002 µM)
In short, it runs like this:
(§1)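 Cells from lung cancer lines were seeded into 1536-well plates and, one day later, dosed by pin tool. Treatments were either a single drug or a fixed dose of an anchor drug with five library-drug doses (not always all listed) in √10 steps. After 5 days, nuclei were stained in a one-step fixation (final 0.05% Triton X-100, 1% formaldehyde, 1 ug/ml Hoechst) and counted on 4× images, and relative viability is the treated-to-vehicle nuclei ratio, as the median of duplicate plates.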

Compound in experiment [2]: CC(C)C[C@@H](C(=O)N[C@H](C(=O)OC1CCCC1)c1ccccc1)[C@H](O)C(=O)NO [Tosedostat] + COc1cccc2cc(-c3nc([C@H]4CC[C@H](C(=O)O)CC4)n4ncnc(N)c34)[nH]c12 [OSI-027] (partner 0.5 µM)
In short, it runs like this:
as §1

Compound in experiment [3]: CC(C)C[C@@H](C(=O)N[C@H](C(=O)OC1CCCC1)c1ccccc1)[C@H](O)C(=O)NO [Tosedostat] + N=C(N)NC(=N)NCCc1ccccc1 [Phenformin] (partner 250 µM)
Summed up: as §1

Compound in experiment [4]: CC1=NN=C(O1)C2=NN=C(C=C2)N3CCC(CC3)OC4=C(C=CC(=C4)F)Cl + COc1cc2c(Oc3ccc(NC(=O)C4(C(=O)Nc5ccc(F)cc5)CC4)cc3F)ccnc2cc1OCCCN1CCOCC1 [Foretinib] (partner 0.25 µM)
In short, it runs like this:
as §1

With UMC-11, the relative viability in experiment [1] (first compound 0.02 µM) worked out at 0.689; in experiment [1] (first compound 0.06325 µM), 0.523; in experiment [1] (first compound 0.2 µM) it was 0.752; in experiment [1] (first compound 0.6325 µM) it was 0.663; in experiment [1] (first compound 2 µM), 0.81; in experiment [2] (first compound 0.02 µM) it was 0.473. The relative viability in experiment [2] (first compound 0.06325 µM) stood at 0.464; in experiment [2] (first compound 0.2 µM) it was 0.397; in experiment [2] (first compound 0.6325 µM), 0.449; in experiment [2] (first compound 2 µM), 0.473; in experiment [3] (first compound 0.02 µM), 0.353; in experiment [3] (first compound 0.06325 µM), 0.328. Further, the relative viability in experiment [3] (first compound 0.2 µM) turned out to be 0.298; in experiment [3] (first compound 0.6325 µM) it was 0.282; in experiment [3] (first compound 2 µM), 0.278; in experiment [4] (first compound 0.253 µM), 0.539; in experiment [4] (first compound 0.8 µM) it was 0.57; in experiment [4] (first compound 2.53 µM) it was 0.543. For the same cell line, the relative viability in experiment [4] (first compound 8 µM) is 0.501.
